Results from patent US20240325353A1, “COMPOUND FOR TREATMENT OF COGNITIVE DISORDERS” (Syndesi Therapeutics SA, priority 2021, published 2024).

Test system: brain activity (BOLD signal)
Assay: pharmaco-MRI (BOLD) neuroimaging study in conscious rats
Type: in vivo, rat
Conditions: for median number of positive voxels (positive BOLD volume of activation): 20-30 min post injection
Experimental: Test Substance, Reference Substance(s), and Vehicle: the compound of example 1 test substance for dose-dependent change in BOLD signal was provided by Syndesi along with the formula for the vehicle.
Subjects: Forty-eight male Sprague Dawley rats weighing ca 275-300 g were obtained from Charles River Laboratories (Wilmington, MA, USA). Rat were maintained on a 12:12 hour light:dark cycle with a lights on at 0700 hours and allowed access to food and water ad libitum. All rats were acquired and cared for in accordance with the guidelines published in the Guide for the Care and Use of Laboratory Animals (National Institutes of Health Publications No. 85-23, Revised 1985) and adhered to the National Institutes of Health and the American Association for Laboratory Animal Science guidelines.
Acclimation: To reduce the stress associated with head restraint, rats were acclimated to the restraining system (head holder and body tube) one week prior to their actual imaging session. The design of the restraining system (Animal Imaging Research, Holden MA, USA) included a padded head support obviating the need for ear bars helping to reduce animal discomfort while minimizing motion artifact. These acclimation sessions were run each day for 4-5 consecutive days. Rats were briefly anesthetized with 2-3% isoflurane while being secured into the head holder. The forepaws were secured with tape. When fully conscious, the imaging system is placed into a black opaque box “mock scanner” for 30 min with a tape-recording of the MRI pulse sequence to simulate the bore of the magnet and the imaging protocol. A significant decline in respiration, heart rate, motor movements, and plasma corticosterone has been measured when the first and last acclimation periods are compared (King et al., 2005). The reduction in autonomic and somatic measures of arousal and stress improve the signal resolution and quality of the images.
Image Acquisition: Animals were scanned at 300 MHz using a quadrature transmit/receive volume coil built into the rat head holder and restraining system for awake animal imaging (Animal Imaging Research, Holden, MA, USA). The design of the coil provided complete coverage of the brain from olfactory bulbs to brain stem with excellent B1 field homogeneity. Experiments were conducted using a Bruker Biospec 7.0 T/20-cm USR horizontal magnet (Bruker, Billerica, MA, USA) and a 20-G/cm magnetic field gradient insert (ID=12 cm) capable of a 120-μs rise time. At the beginning of each imaging session, a high-resolution anatomical data set was collected using the RARE pulse sequence [22 slice; 1.0 mm; field of view (FOV) 3.0 cm; matrix size 256×256; repetition time (TR) 2.5 s; echo time (TE) 12 ms; NEX 2; 3 min acquisition time]. Functional images were acquired using a multi-slice half-Fourier acquisition single-shot turbo spin echo (HASTE) pulse sequence. Bruker Paravision automatically finds the basic frequency, shims, power requirements for 90° and 180° pulses and sets the receiver gain. A single scanning session acquired 22 slices, 1.0 mm thick, every 6.0 s (TR), using an effective TE of 48 ms, FOV 3.0 cm, matrix size 96×96, NEX 1, and repeated 450 times for a total scanning time of 45 min. The in-plane pixel resolution was 312 μm2.
Data Processing: Data are coregistered to a mean functional image using SPM8's coregistrational code with the following parameters: Quality: 0.97, Smoothing: 0.35 mm, Separation: 0.5 mm. Gaussian smoothing was performed with a FWHM of 0.8 mm. Images were aligned and registered to the 3D rat brain atlas, segmented and labeled with 171 discrete anatomical regions. The alignment process was facilitated by an interactive graphic user interface. The registration process involved translation, rotation and scaling independently and in all three dimensions. Matrices that transformed each subject's anatomy were used to embed each slice within the atlas. […]

With `O=C1C[C@H](c2cc(F)c(F)c(F)c2)CN1Cn1ncnc1Cl` [compound of example 1, (4R)-1-[(5-chloro-1H-1,2,4-triazol-1-yl)methyl]-4-(3,4,5-trifluorophenyl)pyrrolidin-2-one] as the compound, how does the “effect on the volume of activation (dose response, inverted U)” value (0.1 mg/kg i.p.) read?
Its value is “greatest effect”.

What about the “brain areas significantly activated, low dose versus vehicle” value (0.1 mg/kg versus vehicle, of 171 brain regions) of the same compound?
Its value is 30/171.

What about the “effect on the volume of activation (dose response, inverted U)” value (1.0 mg/kg i.p.) of the same compound?
Its value is “little or no activation”.

And the “median number of positive voxels (positive BOLD volume of activation)” value (“median number of positive voxels” below) (CA1 dorsal, 0.1 mg/kg i.p.)?
Its value is 23.

And the “median number of positive voxels” value (CA1 dorsal, 0.3 mg/kg i.p.)?
Its value is 15.

And the “median number of positive voxels” value (CA1 dorsal, 1.0 mg/kg i.p.)?
Its value is 0.

What about the “median number of positive voxels” value (accumbens core, 0.1 mg/kg i.p.) of the same compound?
Its value is 13.

And the “median number of positive voxels” value (accumbens core, 0.3 mg/kg i.p.)?
The value was 3.

What about the “median number of positive voxels” value (accumbens core, 1.0 mg/kg i.p.) of the same compound?
The value was 0.

What about the “median number of positive voxels” value (accumbens shell, 0.1 mg/kg i.p.) of the same compound?
Its value is 8.

And the “median number of positive voxels” value (accumbens shell, 0.3 mg/kg i.p.)?
The value was 10.

What about the “median number of positive voxels” value (accumbens shell, 1.0 mg/kg i.p.) of the same compound?
The value was 2.

What about the “median number of positive voxels” value (anterior cingulate area, 0.1 mg/kg i.p.) of the same compound?
Its value is 67.

And the “median number of positive voxels” value (anterior cingulate area, 0.3 mg/kg i.p.)?
The value was 37.

And the “median number of positive voxels” value (anterior cingulate area, 1.0 mg/kg i.p.)?
The value was 2.

What about the “median number of positive voxels” value (anterior pretectal nucleus, 0.1 mg/kg i.p.) of the same compound?
The value was 7.

And the “median number of positive voxels” value (anterior pretectal nucleus, 0.3 mg/kg i.p.)?
Its value is 5.

What about the “median number of positive voxels” value (anterior pretectal nucleus, 1.0 mg/kg i.p.) of the same compound?
The value was 0.

What about the “median number of positive voxels” value (central amygdaloid nucleus, 0.1 mg/kg i.p.) of the same compound?
The value was 8.

And the “median number of positive voxels” value (central amygdaloid nucleus, 0.3 mg/kg i.p.)?
The value was 4.

What about the “median number of positive voxels” value (central amygdaloid nucleus, 1.0 mg/kg i.p.) of the same compound?
The value was 0.

And the “median number of positive voxels” value (dentate gyrus dorsal, 0.1 mg/kg i.p.)?
The value was 17.

And the “median number of positive voxels” value (dentate gyrus dorsal, 0.3 mg/kg i.p.)?
Its value is 9.

And the “median number of positive voxels” value (dentate gyrus dorsal, 1.0 mg/kg i.p.)?
The value was 0.

And the “median number of positive voxels” value (dentate gyrus ventral, 0.1 mg/kg i.p.)?
The value was 14.

What about the “median number of positive voxels” value (dentate gyrus ventral, 0.3 mg/kg i.p.) of the same compound?
The value was 14.

And the “median number of positive voxels” value (dentate gyrus ventral, 1.0 mg/kg i.p.)?
Its value is 0.

What about the “median number of positive voxels” value (dorsal medial striatum, 0.1 mg/kg i.p.) of the same compound?
The value was 39.

And the “median number of positive voxels” value (dorsal medial striatum, 0.3 mg/kg i.p.)?
The value was 30.

And the “median number of positive voxels” value (dorsal medial striatum, 1.0 mg/kg i.p.)?
The value was 0.

And the “median number of positive voxels” value (dorsal raphe, 0.1 mg/kg i.p.)?
Its value is 1.

And the “median number of positive voxels” value (dorsal raphe, 0.3 mg/kg i.p.)?
Its value is 0.

And the “median number of positive voxels” value (dorsal raphe, 1.0 mg/kg i.p.)?
Its value is 0.

What about the “median number of positive voxels” value (endopiriform nucleus, 0.1 mg/kg i.p.) of the same compound?
Its value is 2.

What about the “median number of positive voxels” value (endopiriform nucleus, 0.3 mg/kg i.p.) of the same compound?
Its value is 0.

And the “median number of positive voxels” value (endopiriform nucleus, 1.0 mg/kg i.p.)?
The value was 0.

And the “median number of positive voxels” value (granular cell layer, 0.1 mg/kg i.p.)?
Its value is 70.

And the “median number of positive voxels” value (granular cell layer, 0.3 mg/kg i.p.)?
Its value is 52.

What about the “median number of positive voxels” value (granular cell layer, 1.0 mg/kg i.p.) of the same compound?
The value was 9.

And the “median number of positive voxels” value (habenula nucleus, 0.1 mg/kg i.p.)?
The value was 11.

What about the “median number of positive voxels” value (habenula nucleus, 0.3 mg/kg i.p.) of the same compound?
The value was 10.

And the “median number of positive voxels” value (habenula nucleus, 1.0 mg/kg i.p.)?
Its value is 0.

And the “median number of positive voxels” value (infralimbic ctx, 0.1 mg/kg i.p.)?
Its value is 19.

What about the “median number of positive voxels” value (infralimbic ctx, 0.3 mg/kg i.p.) of the same compound?
The value was 21.

And the “median number of positive voxels” value (infralimbic ctx, 1.0 mg/kg i.p.)?
The value was 4.

And the “median number of positive voxels” value (lateral amygdaloid nucleus, 0.1 mg/kg i.p.)?
The value was 5.

What about the “median number of positive voxels” value (lateral hypothalamus, 0.1 mg/kg i.p.) of the same compound?
The value was 56.

And the “median number of positive voxels” value (lateral hypothalamus, 0.3 mg/kg i.p.)?
The value was 59.

And the “median number of positive voxels” value (lateral hypothalamus, 1.0 mg/kg i.p.)?
The value was 2.

What about the “median number of positive voxels” value (lateral orbital ctx, 0.1 mg/kg i.p.) of the same compound?
Its value is 29.

And the “median number of positive voxels” value (lateral orbital ctx, 0.3 mg/kg i.p.)?
The value was 14.

And the “median number of positive voxels” value (lateral orbital ctx, 1.0 mg/kg i.p.)?
Its value is 1.
